These results are taken from ChEMBL document CHEMBL3611986, “Reversal of P-gp and BCRP-mediated MDR by tariquidar derivatives” (Eur J Med Chem, 2015).

One data set has as its system HCT-116. Description: Cytotoxicity against human HCT116 cells assessed as cell viability after 48 hrs by MTT assay. Type of data set: cell-based. The note with it: HCT-116, 48 h. For orientation: Formazan colour is commonly taken as a measure of viable cells.
The nature of data set [1]: Cytotoxicity against human HFE cells assessed as cell viability after 72 hrs by MTT assay. Format: cell-based.
The next data set deals with SW-620. Description: Cytotoxicity against human SW620 cells assessed as cell viability after 48 hrs by MTT assay. Type of data set: cell-based. The note with it: SW-620, 48 h.
Data set [2] is described as follows: Cytotoxicity against human CCD-18Co cells assessed as cell viability after 48 hrs by MTT assay. Format: cell-based.
For data set [3], the target named is Multidrug resistance-associated protein 1 (Homo sapiens, UniProt P33527). Nature of the data set: Inhibition of MRP1 (unknown origin)-mediated calcein-AM efflux expressed in HEK293/MRP1 cells at 0.5 uM after 1 hr by flow cytometry. Type of data set: cell-based. Particulars: hek293/mrp1, 1 h.
A short description of data set [4]: Cytotoxicity against human SW620/AD300 cells assessed as cell viability after 48 hrs by MTT assay. Particulars: SW-620, 48 h. Type of data set: cell-based.
Another data set has as its system Hepatocyte. Description: Cytotoxicity against rat hepatocytes assessed as cell viability after 72 hrs by MTT assay. Format: cell-based. The note with it: Rattus norvegicus, Hepatocyte.
Data set [5] concerns K562. Nature of the data set: Induction of UIC2 antibody binding to p-glycoprotein in human K562 cells at 0.5 uM preincubated for 10 mins followed by antibody addition measured after 45 mins by flow cytometry relative to tariquidar. Type of data set: cell-based. On the technique in general: A flow cytometer gives signals particle by particle.
Data set [6] concerns the target T1, Broad substrate specificity ATP-binding cassette transporter ABCG2 (Homo sapiens, UniProt Q9UNQ0).
T1 sequence (Q9UNQ0 whole entry): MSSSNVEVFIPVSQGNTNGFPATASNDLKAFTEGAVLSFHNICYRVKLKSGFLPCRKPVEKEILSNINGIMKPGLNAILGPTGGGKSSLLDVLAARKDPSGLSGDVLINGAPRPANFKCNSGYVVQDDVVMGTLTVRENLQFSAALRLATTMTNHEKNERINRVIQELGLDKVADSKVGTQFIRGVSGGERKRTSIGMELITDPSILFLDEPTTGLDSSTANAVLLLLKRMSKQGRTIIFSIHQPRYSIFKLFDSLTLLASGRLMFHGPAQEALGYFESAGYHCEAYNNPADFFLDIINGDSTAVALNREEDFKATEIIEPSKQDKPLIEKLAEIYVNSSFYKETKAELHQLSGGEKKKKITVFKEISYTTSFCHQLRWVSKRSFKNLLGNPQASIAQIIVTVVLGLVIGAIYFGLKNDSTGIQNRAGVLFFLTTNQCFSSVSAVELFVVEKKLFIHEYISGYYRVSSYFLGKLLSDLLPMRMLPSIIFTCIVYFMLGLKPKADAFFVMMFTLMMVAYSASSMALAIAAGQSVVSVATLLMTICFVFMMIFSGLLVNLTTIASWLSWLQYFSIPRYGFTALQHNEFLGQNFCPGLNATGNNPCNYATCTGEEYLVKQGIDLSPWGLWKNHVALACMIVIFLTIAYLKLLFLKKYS
Description: Induction of 5D3 antibody binding to BCRP in human K562 cells at 0.5 uM preincubated for 10 mins followed by antibody addition measured after 45 mins by flow cytometry relative to tariquidar. Format: cell-based. The note with it: k562, 0.75 h.

In data set [7] the test system is K562. Nature of the data set: Effect on rhodamine-123 efflux in wild type human K562 cells at 0.5 uM after 1 hr by flow cytometry. Type of data set: ADME, cell-based. The note with it: k562, 1 h.
Another data set is filed under the species Homo sapiens. Description: Inhibition of p-glycoprotein (unknown origin) expressed in High five insect cell membranes assessed as ATP hydrolysis after 20 mins by colorimetric ATPase assay.
Data set [8] is described as follows: Cytotoxicity against human LCC6 cells at 200 nM after 72 hrs by SRB assay. Format: cell-based. Particulars: lcc6, 72 h, 0.2 µM. In general terms: The SRB assay estimates cell density from bound dye.
The nature of data set [9]: Cytotoxicity against human LCC6 cells expressing p-glycoprotein at 200 nM after 72 hrs by SRB assay. Type of data set: cell-based. Particulars: lcc6, 72 h, 0.2 µM.
Data set [10] deals with T2, ATP-dependent translocase ABCB1 (Homo sapiens, UniProt P08183). Description: Inhibition of p-glycoprotein-mediated rhodamine-123 efflux in human K562/p-gp cells after 1 hr by flow cytometry. Type of data set: cell-based.
A short description of data set [11]: Potentiation of paclitaxel-induced cytotoxicity against human LCC6 cells at 200 nM after 72 hrs by SRB assay relative to control. Type of data set: functional.
In data set [12] the target is T2, ATP-dependent translocase ABCB1. Nature of the data set: Inhibition of p-glycoprotein-mediated rhodamine-123 efflux in human K562/p-gp cells at 0.5 uM after 1 hr by flow cytometry relative to tariquidar. Type of data set: cell-based. Particulars: 1 h, 0.5 µM.
Data set [13] has the same target. Description: Inhibition of p-glycoprotein in human LCC6/MDR cells assessed as increase of paclitaxel-induced cytotoxicity at 200 nM after 72 hrs by SRB assay relative to control. Type of data set: cell-based. The note with it: 0.2 µM.

Activity calls are given as the source filed them. No cut-off for these calls is given here.

T2 sequence (P08183 whole entry): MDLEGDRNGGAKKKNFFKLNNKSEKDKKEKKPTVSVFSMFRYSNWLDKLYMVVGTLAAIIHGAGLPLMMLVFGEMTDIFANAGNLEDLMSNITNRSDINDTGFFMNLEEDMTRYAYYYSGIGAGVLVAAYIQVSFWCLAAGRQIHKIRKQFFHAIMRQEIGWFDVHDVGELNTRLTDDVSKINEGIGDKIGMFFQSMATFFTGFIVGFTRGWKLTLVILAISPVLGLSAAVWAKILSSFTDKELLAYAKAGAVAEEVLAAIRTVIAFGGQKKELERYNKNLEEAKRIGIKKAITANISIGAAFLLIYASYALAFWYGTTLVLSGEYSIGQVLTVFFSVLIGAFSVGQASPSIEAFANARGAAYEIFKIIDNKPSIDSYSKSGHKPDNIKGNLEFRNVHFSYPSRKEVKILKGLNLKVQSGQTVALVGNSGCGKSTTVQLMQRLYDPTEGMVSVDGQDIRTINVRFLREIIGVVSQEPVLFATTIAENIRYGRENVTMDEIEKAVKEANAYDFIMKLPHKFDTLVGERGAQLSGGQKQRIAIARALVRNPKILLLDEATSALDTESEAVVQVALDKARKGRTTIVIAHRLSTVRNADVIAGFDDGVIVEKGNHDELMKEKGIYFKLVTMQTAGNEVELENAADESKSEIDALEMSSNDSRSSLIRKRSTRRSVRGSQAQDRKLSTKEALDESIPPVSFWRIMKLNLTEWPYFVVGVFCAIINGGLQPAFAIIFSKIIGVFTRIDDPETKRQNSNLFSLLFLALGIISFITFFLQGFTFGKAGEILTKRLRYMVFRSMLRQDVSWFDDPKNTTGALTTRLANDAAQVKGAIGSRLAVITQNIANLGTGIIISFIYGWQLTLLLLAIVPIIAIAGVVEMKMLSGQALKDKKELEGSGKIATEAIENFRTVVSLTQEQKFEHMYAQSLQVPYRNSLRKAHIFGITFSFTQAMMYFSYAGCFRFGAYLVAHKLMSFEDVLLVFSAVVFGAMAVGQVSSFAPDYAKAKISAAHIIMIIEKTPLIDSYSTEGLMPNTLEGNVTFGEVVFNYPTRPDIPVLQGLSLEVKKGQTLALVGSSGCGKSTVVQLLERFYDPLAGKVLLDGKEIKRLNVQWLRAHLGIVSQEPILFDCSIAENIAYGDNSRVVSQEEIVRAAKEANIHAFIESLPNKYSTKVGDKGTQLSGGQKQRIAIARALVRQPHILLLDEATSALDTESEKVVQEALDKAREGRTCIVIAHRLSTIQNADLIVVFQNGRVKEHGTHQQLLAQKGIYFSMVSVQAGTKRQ
Sequence of Multidrug resistance-associated protein 1 (P33527 whole entry): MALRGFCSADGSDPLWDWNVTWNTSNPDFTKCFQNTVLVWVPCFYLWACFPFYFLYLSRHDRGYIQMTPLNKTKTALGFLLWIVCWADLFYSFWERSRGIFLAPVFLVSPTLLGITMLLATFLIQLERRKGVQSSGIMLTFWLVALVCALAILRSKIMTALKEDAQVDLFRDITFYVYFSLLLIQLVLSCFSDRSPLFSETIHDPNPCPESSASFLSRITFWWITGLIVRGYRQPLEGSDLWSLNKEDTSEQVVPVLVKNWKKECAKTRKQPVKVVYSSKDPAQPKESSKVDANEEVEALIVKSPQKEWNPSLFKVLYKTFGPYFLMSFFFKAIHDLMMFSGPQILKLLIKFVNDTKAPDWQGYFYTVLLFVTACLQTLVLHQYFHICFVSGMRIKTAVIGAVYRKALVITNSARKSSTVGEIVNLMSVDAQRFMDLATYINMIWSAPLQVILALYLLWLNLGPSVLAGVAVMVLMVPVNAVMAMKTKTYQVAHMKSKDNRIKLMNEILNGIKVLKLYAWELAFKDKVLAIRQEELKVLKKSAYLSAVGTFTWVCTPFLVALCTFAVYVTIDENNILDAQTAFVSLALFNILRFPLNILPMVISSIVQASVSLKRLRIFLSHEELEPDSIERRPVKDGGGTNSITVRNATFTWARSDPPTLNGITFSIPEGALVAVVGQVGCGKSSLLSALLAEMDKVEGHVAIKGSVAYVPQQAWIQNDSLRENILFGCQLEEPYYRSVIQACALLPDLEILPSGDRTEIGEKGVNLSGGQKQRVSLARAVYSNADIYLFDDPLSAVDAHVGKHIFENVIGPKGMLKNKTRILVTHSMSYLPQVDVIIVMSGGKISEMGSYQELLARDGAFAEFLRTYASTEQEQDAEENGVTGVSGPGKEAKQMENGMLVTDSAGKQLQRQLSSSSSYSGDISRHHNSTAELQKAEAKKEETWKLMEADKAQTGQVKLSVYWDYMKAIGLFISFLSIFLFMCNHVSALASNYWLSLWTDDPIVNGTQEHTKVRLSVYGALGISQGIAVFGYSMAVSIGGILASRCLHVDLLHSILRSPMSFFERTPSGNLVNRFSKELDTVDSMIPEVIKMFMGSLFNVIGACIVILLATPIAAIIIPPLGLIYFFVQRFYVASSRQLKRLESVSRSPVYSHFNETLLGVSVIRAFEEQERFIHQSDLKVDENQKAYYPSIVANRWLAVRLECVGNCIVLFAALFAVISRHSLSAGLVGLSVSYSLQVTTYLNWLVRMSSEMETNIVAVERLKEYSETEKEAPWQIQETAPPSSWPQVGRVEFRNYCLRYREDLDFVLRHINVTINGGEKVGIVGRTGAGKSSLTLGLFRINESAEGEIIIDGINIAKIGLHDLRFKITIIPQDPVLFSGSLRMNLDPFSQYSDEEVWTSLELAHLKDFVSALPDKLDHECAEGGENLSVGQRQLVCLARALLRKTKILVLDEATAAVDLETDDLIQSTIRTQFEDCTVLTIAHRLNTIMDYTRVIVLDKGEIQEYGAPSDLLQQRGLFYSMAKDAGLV

What is called IC50 is the midpoint of a concentration-inhibition curve. On to `COc1cc2c(cc1OC)CN(CCc1ccc(NC(=O)c3ccccc3NS(=O)(=O)c3cc(Cl)ccc3Cl)cc1)CC2`, for which the IC50 in the data set with HCT-116 was 25 µM; in data set [1], more than 100 µM; in the data set on SW-620, more than 100 µM; in data set [2], more than 100 µM; in data set [4], more than 100 µM. Besides, the “inhibition (INH)” value in data set [3] is on record as “Not Active”.

On to `COc1cc2c(cc1OC)CN(CCc1ccc(NC(=O)c3ccccc3NC(=O)OCC3c4ccccc4-c4ccccc43)cc1)CC2`, for which the IC50 (with HCT-116; in data set [1]; with SW-620; in data set [2]; in data set [4]) was more than 100 µM each time. In data set [3], the “inhibition (INH)” value is given as “Not Active”.

Consider `COc1cc2c(cc1OC)CN(CCc1ccc(NC(=O)c3ccccc3NS(=O)(=O)c3cccc4c(N(C)C)cccc34)cc1)CC2`, for which the IC50 (in the data set on HCT-116; in data set [1]; in the data set with SW-620; in data set [2]; in [4]) was more than 100 µM throughout. Besides, the “inhibition (INH)” value in [3] is on record as “Not Active”.

With `COc1cc2c(cc1OC)CN(CCc1ccc(NC(=O)c3ccccc3NS(=O)(=O)c3ccc(C(F)(F)F)cc3)cc1)CC2`, the concentration for half-maximal inhibition (IC50) in the data set on HCT-116 was 25 µM; in data set [1], more than 100 µM; with SW-620, more than 100 µM; in [2] it was more than 100 µM; in data set [4] it was more than 100 µM; in the data set on Hepatocyte it was 50 µM. Also, the “inhibition (INH)” value in data set [3] is recorded as “Not Active”.

For `COc1ccc(S(=O)(=O)Nc2ccccc2C(=O)Nc2ccc(CCN3CCc4cc(OC)c(OC)cc4C3)cc2)cc1`, the IC50 (with HCT-116; in data set [1]; with SW-620; in data set [2]; in [4]) was more than 100 µM in each case. Also, the “inhibition (INH)” value in [3] is recorded as “Not Active”.

On to `COc1cc2c(cc1OC)CN(CCc1ccc(NC(=O)c3ccccc3NS(=O)(=O)c3c(C)cc(C)cc3C)cc1)CC2`, for which the IC50 in the data set on HCT-116 was more than 100 µM; in data set [1], more than 100 µM; in the data set on SW-620, more than 100 µM; in data set [2] it was more than 100 µM; in data set [4] it was more than 100 µM; in the data set with Hepatocyte, 100 µM. In addition, the “inhibition (INH)” value in data set [3] is given as “Not Active”.

Turning to `COc1cc2c(cc1OC)CN(CCc1ccc(NC(=O)c3cc(OC)c(OC)cc3NS(=O)(=O)c3ccc(C(F)(F)F)cc3)cc1)CC2`, the IC50 in the data set with HCT-116 is 25 µM; in [1] it was more than 100 µM; in the data set with SW-620 it was more than 100 µM; in data set [2], more than 100 µM; in data set [4] it was more than 100 µM; with Hepatocyte, 50 µM. Further, the “inhibition (INH)” value in data set [3] is recorded as “Not Active”.

As to `COc1cc2c(cc1OC)CN(CCc1ccc(NC(=O)c3ccccc3NS(=O)(=O)c3ccc(NC(C)=O)cc3)cc1)CC2`, the 50% inhibitory concentration (IC50) (with HCT-116; in data set [1]; with SW-620; in [2]; in [4]) was more than 100 µM in each case. Besides, the “inhibition (INH)” value in [3] is on record as “Not Active”.

Regarding `COc1cc2c(cc1OC)CN(CCc1ccc(NC(=O)c3cc(OC)c(OC)cc3NS(=O)(=O)c3ccc(C)cc3)cc1)CC2`, the IC50 was more than 100 µM in the data set on HCT-116; more than 100 µM in data set [1]; more than 100 µM in the data set with SW-620; more than 100 µM in [2]; more than 100 µM in data set [4]; 100 µM with Hepatocyte. Besides, the “inhibition (INH)” value in [3] is “Not Active”.

Turning to `COc1cc2c(cc1OC)CN(CCc1ccc(NC(=O)c3ccccc3NS(=O)(=O)c3ccc(C)cc3)cc1)CC2`, the IC50 (in the data set on HCT-116; in data set [1]; in the data set on SW-620; in data set [2]; in data set [4]) was more than 100 µM throughout. Also, the result with K562 [5] was inactive. The Activity result in data set [6] was “Not Active”. Besides, the “inhibition (INH)” value in data set [3] is given as “Not Active”.

On to `CCCS(=O)(=O)Nc1ccccc1C(=O)Nc1ccc(CCN2CCc3cc(OC)c(OC)cc3C2)cc1`, for which the half-inhibitory concentration (IC50) (in the data set with HCT-116; in data set [1]; with SW-620; in [2]; in data set [4]) was more than 100 µM each time. Moreover, in data set [3], the “inhibition (INH)” value is reported as “Not Active”.

For the compound `COc1cc2c(cc1OC)CN(CCc1ccc(NC(=O)c3ccccc3NS(=O)(=O)c3ccccc3C(F)(F)F)cc1)CC2`, the IC50 in the data set with HCT-116 is more than 100 µM; in data set [1], more than 100 µM; with SW-620 it was more than 100 µM; in data set [2] it was more than 100 µM; in data set [4], more than 100 µM; with Hepatocyte, 100 µM. Besides, the “inhibition (INH)” value in data set [3] was “Not Active”.

As for `CCCCCCCCCCCC(=O)Nc1ccccc1C(=O)Nc1ccc(CCN2CCc3cc(OC)c(OC)cc3C2)cc1`, the 50% inhibitory concentration (IC50) (in the data set with HCT-116; in data set [1]; with SW-620; in data set [2]; in data set [4]) was more than 100 µM throughout. For the same compound, the “inhibition (INH)” value in data set [3] was “Not Active”.

`COc1cc2c(cc1OC)CN(CCc1ccc(NC(=O)c3ccccc3NS(=O)(=O)c3ccccc3F)cc1)CC2`: the half-inhibitory concentration (IC50) with HCT-116 is more than 100 µM; in data set [1] it was more than 100 µM; in the data set with SW-620 it was more than 100 µM; in data set [2], more than 100 µM; in data set [4], more than 100 µM; in the data set with Hepatocyte it was 100 µM. In data set [3], the “inhibition (INH)” value is on record as “Not Active”.

For the compound `COc1cc2c(cc1OC)CN(CCc1ccc(NC(=O)c3ccccc3NS(=O)(=O)c3ccc(F)cc3)cc1)CC2`, the IC50 (with HCT-116; in [1]; with SW-620; in [2]; in [4]) was more than 100 µM throughout. Further, in data set [3], the “inhibition (INH)” value is on record as “Not Active”.

Turning to `COc1cc2c(cc1OC)CN(CCc1ccc(NC(=O)c3cc(OC)c(OC)cc3NS(=O)(=O)c3ccc(C(C)(C)C)cc3)cc1)CC2`, the Activity entry with K562 [7] is “Non-toxic”; in data set [8] it was “Non-toxic”; in data set [9] it was “Non-toxic”; in the data set with K562 [5], 70.7%. Moreover, the inhibition result in the data set filed under Homo sapiens is “Dose-dependent effect”. The concentration for half-maximal inhibition (IC50) in the data set with HCT-116 was more than 100 µM; in data set [1], more than 5 µM; in the data set with SW-620 it was more than 100 µM; in [2], more than 100 µM; in data set [4], more than 100 µM. Also, the “inhibition (INH)” value in data set [10] is recorded as “Dose-dependent effect”; in data set [3], “Not Active”; in data set [12], “Active”. Moreover, the entries for the “fold change (FC)” value in [11] and in data set [13] were 1 and 21, respectively.

`COc1cc2c(cc1OC)CN(CCc1ccc(NC(=O)c3ccccc3NS(=O)(=O)c3ccc(Cl)cc3)cc1)CC2`: the half-inhibitory concentration (IC50) in the data set on HCT-116 was more than 100 µM; in data set [1] it was more than 5 µM; with SW-620, more than 100 µM; in [2], more than 100 µM; in [4] it was more than 100 µM.
